In this assay the test system is HCT116. To be noted: 72 h. The essentials:
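HCT116 cells were plated at 250 per well in 1536-well plates and allowed 5 h to attach. CellTiter-Glo luminescence was normalized to vehicle as 0% and positive control as -100%, followed by pattern correction. Four-parameter Hill fits provided IC50 and maximal efficacy.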

Structures can show the parent of a compound that is named as a salt. Bounds are passed on as bounds.

Consider `COc1cc2/c(=N/c3ccc(Br)cc3F)nc[nH]c2cc1OCC1CCN(C)CC1` [Vandetanib], for which the IC50 cell viability reads like this: (ICRF193 0 nM) greater than 45.8 µM; (ICRF193 200 nM) greater than 45.8 µM.

As to `O=C(O)CC/C=C\CC[C@@H]1[C@@H](N2CCCCC2)[C@@H](O)C[C@@H]1OCc1ccc(-c2ccccc2)cc1` [Vapiprost hydrochloride], the IC50 cell viability runs as follows: (ICRF193 0 nM) greater than 45.8 µM; (ICRF193 200 nM) greater than 45.8 µM.

Turning to `CCCc1nc(C)c2c(=O)nc(-c3cc(S(=O)(=O)N4CCN(CC)CC4)ccc3OCC)[nH]n12` [Vardenafil], the IC50 cell viability is, setting by setting: (ICRF193 0 nM) greater than 45.8 µM; (ICRF193 200 nM) greater than 45.8 µM.

With `CCCC[C@@H](O)/C=C(C)/C=C/C=C/C(=O)N1CCCC1=O` [Variotin], the IC50 cell viability is greater than 45.8 µM (ICRF193 0 nM) and greater than 45.8 µM (ICRF193 200 nM).

Consider `CC(=O)O[C@H]1C[C@@H]2CC[C@@H]3[C@H](CC[C@@]4(C)[C@H]3C[C@H]([N+]3(C)CCCCC3)[C@@H]4OC(C)=O)[C@@]2(C)C[C@@H]1N1CCCCC1` [Vecuronium bromide], for which the IC50 cell viability was greater than 45.8 µM (ICRF193 0 nM) and greater than 45.8 µM (ICRF193 200 nM).

For the compound `COC[C@H]1C[C@@H](c2nc(-c3ccc4c(c3)COc3cc5c(ccc6nc([C@@H]7CC[C@H](C)N7C(=O)[C@@H](NC(=O)OC)C(C)C)[nH]c65)cc3-4)c[nH]2)N(C(=O)[C@H](NC(=O)OC)c2ccccc2)C1` [Velpatasvir], the IC50 cell viability was greater than 45.8 µM (ICRF193 0 nM) and greater than 45.8 µM (ICRF193 200 nM).

As for `CCCS(=O)(=O)Nc1ccc(F)c(C(=O)c2c[nH]c3ncc(-c4ccc(Cl)cc4)cc23)c1F` [Vemurafenib], the IC50 cell viability is greater than 45.8 µM (ICRF193 0 nM) and greater than 45.8 µM (ICRF193 200 nM).

`CC1(C)CCC(CN2CCN(c3ccc(C(=O)NS(=O)(=O)c4ccc(NCC5CCOCC5)c([N+](=O)[O-])c4)c(Oc4cnc5[nH]ccc5c4)c3)CC2)=C(c2ccc(Cl)cc2)C1` [Venetoclax (ABT-199)] showed an IC50 cell viability (ICRF193 0 nM) greater than 45.8 µM and an IC50 cell viability (ICRF193 200 nM) greater than 45.8 µM.

In the case of `COc1ccc(C(CN(C)C)C2(O)CCCCC2)cc1` (configuration not stated) [Venlafaxine], the IC50 cell viability reads like this: (ICRF193 0 nM) greater than 45.8 µM; (ICRF193 200 nM) greater than 45.8 µM.

On to `COc1ccc(C(=O)N2CCN(c3ccc4c(c3)CCC(=O)N4)CC2)cc1OC` [Vesnarinone], for which the IC50 cell viability was greater than 45.8 µM (ICRF193 0 nM) and greater than 45.8 µM (ICRF193 200 nM).

With `C=CC(N)CCC(=O)O` (configuration not stated) [Vigabatrin], the IC50 cell viability reads like this: (ICRF193 0 nM) greater than 45.8 µM; (ICRF193 200 nM) greater than 45.8 µM.

Take `N#Cc1ccc2[nH]cc(CCCCN3CCN(c4ccc5oc(C(N)=O)cc5c4)CC3)c2c1` [Vilazodone Hydrochloride]: the IC50 cell viability is, setting by setting: (ICRF193 0 nM) greater than 45.8 µM; (ICRF193 200 nM) greater than 45.8 µM.

As to `N#C[C@@H]1CCCN1C(=O)CNC12CC3CC(CC(O)(C3)C1)C2` [Vildagliptin], the IC50 cell viability was greater than 45.8 µM (ICRF193 0 nM) and greater than 45.8 µM (ICRF193 200 nM).

`CCOC(=O)C1=C[C@]2(CC)CCCN3CCc4c(n1c1ccccc41)[C@@H]32` [Vinpocetine] returned an IC50 cell viability (ICRF193 0 nM) greater than 45.8 µM and an IC50 cell viability (ICRF193 200 nM) greater than 45.8 µM.

As to `CS(=O)(=O)c1ccc(C(=O)Nc2ccc(Cl)c(-c3ccccn3)c2)c(Cl)c1` [Vismodegib], the IC50 cell viability is, setting by setting: (ICRF193 0 nM) greater than 45.8 µM; (ICRF193 200 nM) greater than 45.8 µM.

For the compound `Cc1ncc(CO)c(CO)c1O` [Vitamin B6], the IC50 cell viability is, setting by setting: (ICRF193 0 nM) greater than 45.8 µM; (ICRF193 200 nM) greater than 45.8 µM.

For `OCC(CO)N[C@H]1C[C@](O)(CO)[C@@H](O)[C@H](O)[C@H]1O` [Voglibose], the IC50 cell viability reads like this: (ICRF193 0 nM) greater than 45.8 µM; (ICRF193 200 nM) greater than 45.8 µM.

As to `CCOC(=O)N[C@@H]1CC[C@@H]2[C@@H](C1)C[C@H]1C(=O)O[C@H](C)[C@H]1[C@H]2/C=C/c1ccc(-c2cccc(F)c2)cn1` [Vorapaxar Sulfate], the IC50 cell viability by setting is: (ICRF193 0 nM) greater than 45.8 µM; (ICRF193 200 nM) greater than 45.8 µM.

Turning to `C[C@@H](c1ncncc1F)[C@](O)(Cn1cncn1)c1ccc(F)cc1F` [Voriconazole], the IC50 cell viability is greater than 45.8 µM (ICRF193 0 nM) and greater than 45.8 µM (ICRF193 200 nM).

Consider `CC(=O)CC(c1ccccc1)c1c(O)c2ccccc2oc1=O` (configuration not stated) [Warfarin sodium], for which the IC50 cell viability reads like this: (ICRF193 0 nM) greater than 45.8 µM; (ICRF193 200 nM) greater than 45.8 µM.

With `COC(=O)C1=C(C)NC(C)=C(C(=O)OCCc2ccc(N3CCN(C(c4ccccc4)c4ccccc4)CC3)cc2)C1c1cccc([N+](=O)[O-])c1` (configuration not stated) [Watanidipine], the IC50 cell viability reads like this: (ICRF193 0 nM) greater than 45.8 µM; (ICRF193 200 nM) greater than 45.8 µM.

Take `FC(F)(F)c1cccc(C2=CCN(CCc3ccc4ccccc4c3)CC2)c1` [Xaliproden hydrochloride]: the IC50 cell viability was greater than 45.8 µM (ICRF193 0 nM) and greater than 45.8 µM (ICRF193 200 nM).

For `CC1=C[C@H](O)CC(C)(C)[C@H]1/C=C/C(C)=C/C=C/C(C)=C/C=C/C=C(C)/C=C/C=C(C)/C=C/C1=C(C)C[C@@H](O)CC1(C)C` [Xanthophyll], the IC50 cell viability is greater than 45.8 µM (ICRF193 0 nM) and greater than 45.8 µM (ICRF193 200 nM).

Regarding `CCOC(=O)CN[C@@H](C(=O)N1CC[C@H]1C(=O)NCc1ccc(/C(N)=N\O)cc1)C1CCCCC1` [Ximelagatran], the IC50 cell viability reads like this: (ICRF193 0 nM) greater than 45.8 µM; (ICRF193 200 nM) greater than 45.8 µM.

Take `Cc1cccc(C)c1NC(=O)c1cc(S(N)(=O)=O)c(Cl)cc1O` [Xipamide]: the IC50 cell viability reads like this: (ICRF193 0 nM) greater than 45.8 µM; (ICRF193 200 nM) greater than 45.8 µM.

In the case of `Cc1cccc(C)c1NC1=NCCCS1` [Xylazine], the IC50 cell viability is, setting by setting: (ICRF193 0 nM) greater than 45.8 µM; (ICRF193 200 nM) greater than 45.8 µM.

Turning to `Cc1cc(C(C)(C)C)cc(C)c1CC1=NCCN1` [Xylometazoline hydrochloride], the IC50 cell viability runs as follows: (ICRF193 0 nM) greater than 45.8 µM; (ICRF193 200 nM) greater than 45.8 µM.

As to `COC(=O)[C@@H]1[C@H]2C[C@H]3c4[nH]c5ccccc5c4CCN3C[C@@H]2CC[C@@H]1O` [Yohimbine], the IC50 cell viability by setting is: (ICRF193 0 nM) greater than 45.8 µM; (ICRF193 200 nM) greater than 45.8 µM.

`C=CCCCCCCCCC(=O)[O-].C=CCCCCCCCCC(=O)[O-].[Zn+2]` [ZINC UNDECYLENATE] registered an IC50 cell viability (ICRF193 0 nM) greater than 45.8 µM and an IC50 cell viability (ICRF193 200 nM) greater than 45.8 µM.

Turning to `COc1cc(C(=O)NS(=O)(=O)c2ccccc2C)ccc1Cc1cn(C)c2ccc(NC(=O)OC3CCCC3)cc12` [Zafirlukast], the IC50 cell viability runs as follows: (ICRF193 0 nM) greater than 45.8 µM; (ICRF193 200 nM) greater than 45.8 µM.

For the compound `CC(C(=O)O)c1ccc2c(c1)CC(=O)c1ccccc1S2` (configuration not stated) [Zaltoprofen], the IC50 cell viability runs as follows: (ICRF193 0 nM) greater than 45.8 µM; (ICRF193 200 nM) greater than 45.8 µM.

For the compound `CC(=O)N[C@H]1[C@H]([C@H](O)[C@H](O)CO)OC(C(=O)O)=C[C@@H]1NC(=N)N` [Zanamivir], the IC50 cell viability is greater than 45.8 µM (ICRF193 0 nM) and greater than 45.8 µM (ICRF193 200 nM).

`O=C(CCC1CCN(Cc2ccccc2)CC1)c1ccc2c(c1)NCCCC2` [Zanapezil fumerate] showed an IC50 cell viability (ICRF193 0 nM) greater than 45.8 µM and an IC50 cell viability (ICRF193 200 nM) greater than 45.8 µM.

Consider `CC1=C(/C=C/C(C)=C/C=C/C(C)=C/C=C/C=C(C)/C=C/C=C(C)/C=C/C2=C(C)C[C@@H](O)CC2(C)C)C(C)(C)C[C@H](O)C1` [Zeaxanthin], for which the IC50 cell viability is, setting by setting: (ICRF193 0 nM) greater than 45.8 µM; (ICRF193 200 nM) greater than 45.8 µM.

The compound `Oc1ccc([C@@H]2CNCc3c2ccc(O)c3O)cc1O` [Zelandopam] yielded an IC50 cell viability (ICRF193 0 nM) greater than 45.8 µM and an IC50 cell viability (ICRF193 200 nM) greater than 45.8 µM.

`CC(c1cc2ccccc2s1)N(O)C(N)=O` (configuration not stated) [Zileuton]: the IC50 cell viability is, setting by setting: (ICRF193 0 nM) greater than 45.8 µM; (ICRF193 200 nM) greater than 45.8 µM.

With `CC(C)NC1CCn2c(=O)[nH]c3cccc(c32)C1O` (configuration not stated) [Zilpaterol·HCl], the IC50 cell viability runs as follows: (ICRF193 0 nM) greater than 45.8 µM; (ICRF193 200 nM) greater than 45.8 µM.

As for `CCCCN(CCCC)C(=S)[S-].CCCCN(CCCC)C(=S)[S-].[Zn+2]` [Zinc dibutyldithiocarbamate], the IC50 cell viability was greater than 45.8 µM (ICRF193 0 nM) and greater than 45.8 µM (ICRF193 200 nM).

As for `O=C1Cc2cc(CCN3CCN(c4nsc5ccccc45)CC3)c(Cl)cc2N1` [Ziprasidone], the IC50 cell viability by setting is: (ICRF193 0 nM) greater than 45.8 µM; (ICRF193 200 nM) greater than 45.8 µM.

In turn, `Cc1c(C(N)=O)cc([N+](=O)[O-])cc1[N+](=O)[O-]` [Zoalene] yielded an IC50 cell viability (ICRF193 0 nM) greater than 45.8 µM and an IC50 cell viability (ICRF193 200 nM) greater than 45.8 µM.

As for `C[C@H](CSC(=O)c1ccccc1)C(=O)N1C[C@@H](Sc2ccccc2)C[C@H]1C(=O)O` [Zofenopril], the IC50 cell viability runs as follows: (ICRF193 0 nM) greater than 45.8 µM; (ICRF193 200 nM) greater than 45.8 µM.

On to `Cc1nn(C)c2c1C(c1ccccc1F)=NCC(=O)N2C` [Zolazepam Hydrochloride], for which the IC50 cell viability reads like this: (ICRF193 0 nM) greater than 45.8 µM; (ICRF193 200 nM) greater than 45.8 µM.

Turning to `O=P(O)(O)C(O)(Cn1ccnc1)P(=O)(O)O` [Zoledronic acid monohydrate], the IC50 cell viability is, setting by setting: (ICRF193 0 nM) greater than 45.8 µM; (ICRF193 200 nM) greater than 45.8 µM.

In the case of `CN(C)CCc1c[nH]c2ccc(C[C@H]3COC(=O)N3)cc12` [Zolmitriptan], the IC50 cell viability is, setting by setting: (ICRF193 0 nM) greater than 45.8 µM; (ICRF193 200 nM) greater than 45.8 µM.

Regarding `NS(=O)(=O)Cc1noc2ccccc12` [Zonisamide], the IC50 cell viability runs as follows: (ICRF193 0 nM) greater than 45.8 µM; (ICRF193 200 nM) greater than 45.8 µM.

Turning to `CN(C)CCOC1=Cc2ccccc2Sc2ccc(Cl)cc21` [Zotepine], the IC50 cell viability by setting is: (ICRF193 0 nM) greater than 45.8 µM; (ICRF193 200 nM) greater than 45.8 µM.

For the compound `OCCN1CCN(CCC=C2c3ccccc3Sc3ccc(Cl)cc32)CC1` [Zuclopenthixol (-)-10-Camphorsulfonic Acid Salt], the IC50 cell viability was greater than 45.8 µM (ICRF193 0 nM) and greater than 45.8 µM (ICRF193 200 nM).

`CCCCCCCCCC(=O)OCCN1CCN(CC/C=C2/c3ccccc3Sc3ccc(Cl)cc32)CC1` [Zuclopenthixol Decanoate]: the IC50 cell viability by setting is: (ICRF193 0 nM) greater than 45.8 µM; (ICRF193 200 nM) greater than 45.8 µM.

Turning to `NC(=O)CCCCC1CCSS1` (stereo not drawn) [alpha-Lipoic acid amide], the IC50 cell viability by setting is: (ICRF193 0 nM) greater than 45.8 µM; (ICRF193 200 nM) greater than 45.8 µM.

Consider `O=C(O)CCCCC1CCSS1` (stereo not drawn) [alpha-Lipoic acid], for which the IC50 cell viability by setting is: (ICRF193 0 nM) greater than 45.8 µM; (ICRF193 200 nM) greater than 45.8 µM.

Regarding `CC1=C2[C@H]3OC(=O)[C@@H](C)[C@@H]3CC[C@@]2(C)C=CC1=O` [alpha-Santonin], the IC50 cell viability is greater than 45.8 µM (ICRF193 0 nM) and greater than 45.8 µM (ICRF193 200 nM).
